According to ChEMBL document CHEMBL3352350, “Syntheses and structure-activity relationships in cytotoxicities of 13-substituted quaternary coptisine derivatives” (Eur J Med Chem, 2014):

Legend:
[1] = Cytotoxicity against human HCT8 cells assessed as growth inhibition rate after 96 hrs by MTT assay; format: functional, cell-based; settings: HCT-8, 96 h
[2] = Cytotoxicity against human Bel7402 cells assessed as growth inhibition rate at 0.1 to 100 umol/L after 96 hrs by MTT assay; format: functional, Bel-7402
[3] = Cytotoxicity against human HCT8 cells assessed as growth inhibition rate at 0.1 to 100 umol/L after 96 hrs by MTT assay; format: functional, HCT-8
A549 [4] = assay: Cytotoxicity against human A549 cells assessed as growth inhibition rate at 0.1 to 100 umol/L after 96 hrs by MTT assay; format: functional
A549 [5] = assay: Cytotoxicity against human A549 cells assessed as growth inhibition rate after 96 hrs by MTT assay; format: functional, cell-based; settings: A549, 96 h
[6] = Cytotoxicity against human Bel7402 cells assessed as growth inhibition rate after 96 hrs by MTT assay; format: functional, cell-based; settings: Bel-7402, 96 h
[7] = Cytotoxicity against human BGC823 cells assessed as growth inhibition rate after 96 hrs by MTT assay; format: functional, cell-based; settings: BGC-823, 96 h
[8] = Cytotoxicity against human C33A cells assessed as growth inhibition rate at 0.1 to 100 umol/L after 96 hrs by MTT assay; format: functional, C-33-A
[9] = Cytotoxicity against human C33A cells assessed as growth inhibition rate after 96 hrs by MTT assay; format: functional, cell-based; settings: C-33-A

Row | SMILES | IC50 [1] [µM] | growth inhibition (GI) [2] [%] | growth inhibition (GI) [3] [%] | growth inhibition (GI) (A549 [4]) [%] | IC50 (A549 [5]) [µM] | IC50 [6] [µM] | IC50 [7] [µM] | growth inhibition (GI) [8] [%] | IC50 [9] [µM]
1 | Fc1cccc(Cc2c3[n+](cc4c5c(ccc24)OCO5)CCc2cc4c(cc2-3)OCO4)c1.[Cl-] | > 10 | 4.06 | 4.59 | 6.81 | > 10 | > 10 | > 10 | – | –
2 | Fc1ccccc1Cc1c2[n+](cc3c4c(ccc13)OCO4)CCc1cc3c(cc1-2)OCO3.[Cl-] | > 10 | 6.94 | 26.26 | 18.8 | > 10 | > 10 | > 10 | – | –
3 | Fc1ccc(Cc2c3[n+](cc4c5c(ccc24)OCO5)CCc2cc4c(cc2-3)OCO4)c(F)c1.[Cl-] | > 10 | 5.45 | 1.19 | 5.86 | > 10 | > 10 | > 10 | – | –
4 | FC(F)(F)c1cccc(Cc2c3[n+](cc4c5c(ccc24)OCO5)CCc2cc4c(cc2-3)OCO4)c1.[Cl-] | > 10 | 5.98 | -1.37 | 7.78 | > 10 | > 10 | > 10 | – | –
5 | FC(F)(F)c1cc(Cc2c3[n+](cc4c5c(ccc24)OCO5)CCc2cc4c(cc2-3)OCO4)cc(C(F)(F)F)c1.[Cl-] | > 10 | 3.61 | -5.72 | 3.45 | > 10 | > 10 | > 10 | – | –
6 | N#Cc1ccc(Cc2c3[n+](cc4c5c(ccc24)OCO5)CCc2cc4c(cc2-3)OCO4)cc1.[Cl-] | > 10 | 4.03 | 3.69 | 2 | > 10 | > 10 | > 10 | – | –
7 | O=[N+]([O-])c1ccc(Cc2c3[n+](cc4c5c(ccc24)OCO5)CCc2cc4c(cc2-3)OCO4)cc1.[Cl-] | > 10 | -0.12 | -3.7 | 2.27 | > 10 | > 10 | > 10 | – | –
8 | COc1ccc(Cc2c3[n+](cc4c5c(ccc24)OCO5)CCc2cc4c(cc2-3)OCO4)cc1.[Cl-] | > 10 | 5.99 | 10.21 | 11.53 | > 10 | > 10 | > 10 | – | –
9 | Cc1ccc(Cc2c3[n+](cc4c5c(ccc24)OCO5)CCc2cc4c(cc2-3)OCO4)cc1.[Cl-] | > 10 | 12.33 | 15.16 | 26.58 | > 10 | > 10 | > 10 | – | –
10 | [Cl-].c1ccc2cc(Cc3c4[n+](cc5c6c(ccc35)OCO6)CCc3cc5c(cc3-4)OCO5)ccc2c1 | > 10 | 11.78 | 8.33 | 32.22 | > 10 | > 10 | > 10 | – | –
11 | CCOC(=O)c1c2[n+](cc3c4c(ccc13)OCO4)CCc1cc3c(cc1-2)OCO3.[Cl-] | > 10 | 4.05 | 4 | 9.7 | > 10 | > 10 | > 10 | – | –
12 | CCOC(=O)Cc1c2[n+](cc3c4c(ccc13)OCO4)CCc1cc3c(cc1-2)OCO3.[Cl-] | > 10 | 8.43 | -9.3 | 1.25 | > 10 | > 10 | > 10 | – | –
13 | [Cl-].c1c2c(cc3c1OCO3)-c1cc3ccc4c(c3c[n+]1CC2)OCO4 [COPTISINE CHLORIDE] | 5.59 | 12.24 | 62.06 | 49.91 | > 14.1 | > 14.1 | – | -10.71 | > 14.1
14 | O=c1[nH]cc(F)c(=O)[nH]1 [FLUOROURACIL] | 3.54 | 78.43 | 80.36 | 72.25 | 6.69 | 2.23 | – | 56.06 | 4.61
